Reference: patent publication US5120647A, “Phospholipase A2 inhibitor” (Shionogi & Co., Ltd., priority 1989, dated 1992)
Counter-ions that a name gives are not always drawn. Like-named read-outs stand apart in the source and are kept apart here.

How the values were obtained:
PLA2 from Rat Platelet = target: T1, PLA2 from Rat Platelet (Rattus norvegicus, UniProt P14423); assay: PLA2 inhibitory activity (release of free fatty acid from [14C]phosphatidylethanolamine); assay type: biochemical; conditions: for IC50: 37° C., 20 minutes, pH 7.4; for PLA2 inhibitory effect (in words): statement in words
T1 construct: PLA2 released from thrombin-stimulated rat platelets; from tissue; host or cells: thrombin-stimulated rat platelets (released enzyme, purified on MD 7.1 antibody-coupled Sepharose)
T1 sequence (P14423 22-146): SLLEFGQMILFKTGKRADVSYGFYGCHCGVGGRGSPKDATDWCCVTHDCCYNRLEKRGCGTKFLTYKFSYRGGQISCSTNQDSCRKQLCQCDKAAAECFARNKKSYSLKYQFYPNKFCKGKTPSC
Procedure: The amount of Cinatrin (μg/ml) effective for inhibiting 50% of PLA2 activity (IC50) was determined.
PLA2 inhibitory activities of Cinatrin and its derivatives were determined according to the following procedure.
PLA2 released from thrombin-stimulated rat platelets was prepared by immuno-affinity chromatography using antibody MD 7.1-coupled Sepharose (Murakami et. al, J. Biochem 104: 884-888, 1988). The standard assay conditions included, 250 μl of Tris-HCl buffer (100 mM, pH 7.4), CaCl2 (3 mM), 40 μM [^14 C]phosphatidylethanolamine and the enzyme. The reaction was started by the addition of the enzyme solution. Following incubation at 37° C. for 20 minutes, the reaction was terminated by addition of 1.25 ml of Dole's reagent (Dole, V. P. & H, Meinerts, J. Biol. Chem. 235: 2595-2599, 1960). Then released free fatty acid was extracted, and counted in Liquiflour (Du Pont-New England Nuclear) to determine the release of the radioactivity. Inhibition activity is expressed as percent of enzyme control.

Solubility = assay type: physicochemical
[1] = Table 5, seco acid (Na), read-out: PLA2 Inhibitory Activity, IC50, seco acid (Na) (converted)
[2] = Table 5, methyl ester, read-out: PLA2 Inhibitory Activity, IC50, methyl ester (converted)
[3] = Table 5, lactone, read-out: PLA2 Inhibitory Activity, IC50, lactone (converted)

IC50 (PLA2 from Rat Platelet; [2]) [µM]	IC50 (PLA2 from Rat Platelet; [3]) [µM]	Solubility in organic solvents (Solubility)	SMILES	other results
			CCCCCCCCCCC(O)CC(O)(C(=O)O)C(O)(C(=O)O)C(O)C(=O)O (centres unmarked) [Cinatrin B seco acid (Na salt)]	IC50 (PLA2 from Rat Platelet; [1]): 75.7 µM
			CCCCCCCCCCCCC(O)(C(=O)O)C(O)(C(=O)O)C(O)C(=O)O (centres unmarked) [Cinatrin C1 seco acid (Na salt)]	IC50 (PLA2 from Rat Platelet; [1]): 70.1 µM
745			CCCCCCCCCCCC(O)C1C(=O)OC(C(=O)OC)C1(O)C(=O)OC (centres unmarked) [Cinatrin C2 methyl ester]	
133			CCCCCCCCCCCCC1(O)C(=O)OC(C(=O)OC)C1(O)C(=O)OC (centres unmarked) [Cinatrin C3 methyl ester]	
	147	soluble	CCCCCCCCCCC1CC2(OC(=O)C(O)C2(O)C(=O)O)C(=O)O1 (centres unmarked) [Cinatrin B, 8-(decane-1-yl)-3,4-dihydroxy-2,6-dioxo-1,7-dioxaspiro[5,5]-nonane-4-carboxylic acid]	PLA2 inhibitory effect (in words) (PLA2 from Rat Platelet): particularly effective
	801	soluble	CCCCCCCCCCCC(O)C1C(=O)OC(C(=O)O)C1(O)C(=O)O (centres unmarked) [Cinatrin C2, 3-hydroxy-4-(1-hydroxydodecyl)-5-oxo-tetrahydrofuran-2,3-dicarboxylic acid]	
215			CCCCCCCCCCC1CC2(OC(=O)C(O)C2(O)C(=O)OC)C(=O)O1 (centres unmarked) [Cinatrin B methyl ester]	
	78.8	soluble	CCCCCCCCCCCCC1(O)C(=O)OC(C(=O)O)C1(O)C(=O)O (centres unmarked) [Cinatrin C3, 4-dodecyl-3,4-dihydroxy-5-oxo-tetrahydrofuran-2,3-dicarboxylic acid]	PLA2 inhibitory effect (in words) (PLA2 from Rat Platelet): particularly effective
	316	soluble	C=CCCCCCCCCC1CC2(OC(=O)C(O)C2(O)C(=O)O)C(=O)O1 (centres unmarked) [Cinatrin A, 8-(dec-9-ene-1-yl)-3,4-dihydroxy-2,6-dioxo-1,7-dioxaspiro [5,5]-nonane-4-carboxylic acid]	Solubility in water (Solubility): soluble
216			C=CCCCCCCCCC1CC2(OC(=O)C(O)C2(O)C(=O)OC)C(=O)O1 (centres unmarked) [Cinatrin A methyl ester]	
142			CCCCCCCCCCCCC1(C(=O)OC)OC(=O)C(O)C1(O)C(=O)OC (centres unmarked) [Cinatrin C1 methyl ester]	
			CCCCCCCCCCCC(O)C(C(=O)O)C(O)(C(=O)O)C(O)C(=O)O (centres unmarked) [Cinatrin C2 seco acid (Na salt)]	IC50 (PLA2 from Rat Platelet; [1]): 44.6 µM
	> 801	soluble	CCCCCCCCCCCCC1(C(=O)O)OC(=O)C(O)C1(O)C(=O)O (centres unmarked) [Cinatrin C1, 2-dodecyl-3,4-dihydroxy-5-oxo-tetrahydrofuran-2,3-dicarboxylic acid]	IC50 (PLA2 from Rat Platelet; Table 1, lactone form, read-out: IC50, lactone form (Inhibitory Effect on PLA2 from Rat Platelet)): > 801 µM; Change of PLA2 inhibitory activity on conversion of lactone into ester or seco acid form (in words) (PLA2 from Rat Platelet; ester or seco acid form versus lactone form): becomes more active when it is converted into an ester or seco acid form; PLA2 inhibitory effect (in words) (PLA2 from Rat Platelet): moderately active in its lactone form; Solubility in water (Solubility): slightly soluble
			C=CCCCCCCCCC(O)CC(O)(C(=O)O)C(O)(C(=O)O)C(O)C(=O)O (centres unmarked) [Cinatrin A seco acid (Na salt)]	IC50 (PLA2 from Rat Platelet; [1]): 138 µM
